Laboratory results: US10981864B2, “Crystalline modifications of N-(4,5-bismethanesulfonyl-2-methylbenzoyl)guanidine hydrochloride and N-(4,5-bismethanesulfonyl-2-methylbenzoyl)guanidine salts” (MERCK PATENT GMBH, priority 2016, dated 2021)
Values joined by “and” are separate entries in the source; they are usually repeats but may differ in a detail not shown here. Equal values may be shown once. “Also recorded” adds a separate entry of the source.

What was measured:
[1] = tested on: animal models of DMD and dilated cardiomyopathy; conditions: cited from earlier work
[2] = target: sodium-hydrogen antiporter 1 (NHE-1) (Homo sapiens, UniProt P19634); conditions: cited from earlier work
SuHx rats = conditions: in vivo; cited from earlier work
human PASMCs = conditions: in vitro; cited from earlier work
[3] = Thermal behaviour (DSC/TGA), thermal stability; format: physicochemical; conditions: DSC/TGA 5 K/min
Protocol: As used herein, unless stated otherwise, the DSC measurements are carried out using a Mettler-Toledo DSC 821 with a heating rate of 5 K/min, using nitrogen purge gas at 50 mL/min.
As used herein, unless stated otherwise, the TGA measurements are carried out using a Mettler-Toledo TGA 851 with a heating rate of 5 K/min, using nitrogen purge gas at 50 mL/min.

[4] = Mini-dissolution in FeSSIF medium (pH 5.0), dissolved quantity by HPLC; format: physicochemical; conditions: for Dissolution levels in FeSSIF pH 5.0: FeSSIF pH 5.0, 37° C.; for Dissolution behavior compared to prior-art form HCl-H1: biorelevant media, Fed-state conditions (FeSSIF, pH 5.0)
Protocol: Approximately 10-12 mg of N-(4,5-bis-methanesulfonyl-2-methyl-benzoyl)guanidine form HCl-H1 (HCl salt hydrate form, prior-art), HCl salt anhydrous forms (forms HCl-A1, HCl-A2, HCl-A3), and novel salt forms [phosphate salt (form Phosphate-NF1), maleate salt (form Maleate-NF2), oxalate salt (form Oxalate-NF1), citrate salt (form citrate-NF1), sulfate salt (form Sulfate-NF3), succinate salt (form Succinate-NF1), malonate salt (form Malonate-NF1), besylate salt (form Besylate-NF1), p-tosylate salt (form Tosylate-NF1), malate salt (form Malate-NF1), fumarate salt (form Fumarate-NF1), tartrate salt (form Tartrate-NF1)] are weighed into 4 mL glass vials, and dispersed in 4 mL FeSSIF medium (pH 5.0, Acetate buffer capacity increased by factor 4 to ensure stable pH conditions over course of dissolution experiments).
All dispersions are agitated at 37° C. for up to 2 hours. At defined time intervals (5 min, 15 min, 60 min, 120 min), 0.4 mL sample aliquots of homogeneous dispersions are withdrawn by a syringe, and filtrated via syringe filter adapters (PTFE, 0.2 μm). Clear filtrates are diluted (1:20) with respective Acetate blank buffer, and diluted samples analyzed by HPLC for dissolved quantities of N-(4,5-bis-methanesulfonyl-2-methyl-benzoyl)-guanidine.

[5] = Water Vapour Sorption isotherm (DVS), hygroscopicity acc. to Ph. Eur.; format: physicochemical; conditions: for Water uptake levels (Water Vapour Sorption): 25° C.; for Tendency to undergo hydrate formation: upon exposure to elevated RH levels
Protocol: As used herein, unless stated otherwise, Water Vapour Sorption isotherm measurements are carried out on a DVS-1 or a DVS-Intrinsic system from SMS.
A second endothermic event occurs at >180° C., which is due to melting of the dehydrated form. This is followed by immediate re-crystallisation (exothermic event), and subsequent melting of the re-crystallized phase at >240° C. […] DSC scan of form HCl-H1 was acquired on a Mettler-Toledo DSC 821 with a heating rate of 5 K/min, using nitrogen purge gas at 50 mL/min. […] Form HCl-H1 can be classified as non-hygroscopic acc. to Ph. Eur. criteria (section 5.11.). […] Water Vapour Sorption isotherm was acquired on a DVS-1 system from SMS. • Dissolution level of form HCl-H1 in Fed-State Simulated Intestinal Fluid [FeSSIF, pH 5.0] at 37° C. was determined to be approx. 1.50 mg/mL (after 15 min), approx. 4.16 mg/mL (after 60 min), and approx. 4.54 mg/mL (after 120 min), respectively (see example 17).

[6] = tested on: monocrotaline-treated rats; conditions: in vivo; cited from earlier work
[7] = relative humidity range 0-80% rh

sodium-hydrogen antiporter 1 (NHE-1), sequence (P19634 whole entry, species assumed): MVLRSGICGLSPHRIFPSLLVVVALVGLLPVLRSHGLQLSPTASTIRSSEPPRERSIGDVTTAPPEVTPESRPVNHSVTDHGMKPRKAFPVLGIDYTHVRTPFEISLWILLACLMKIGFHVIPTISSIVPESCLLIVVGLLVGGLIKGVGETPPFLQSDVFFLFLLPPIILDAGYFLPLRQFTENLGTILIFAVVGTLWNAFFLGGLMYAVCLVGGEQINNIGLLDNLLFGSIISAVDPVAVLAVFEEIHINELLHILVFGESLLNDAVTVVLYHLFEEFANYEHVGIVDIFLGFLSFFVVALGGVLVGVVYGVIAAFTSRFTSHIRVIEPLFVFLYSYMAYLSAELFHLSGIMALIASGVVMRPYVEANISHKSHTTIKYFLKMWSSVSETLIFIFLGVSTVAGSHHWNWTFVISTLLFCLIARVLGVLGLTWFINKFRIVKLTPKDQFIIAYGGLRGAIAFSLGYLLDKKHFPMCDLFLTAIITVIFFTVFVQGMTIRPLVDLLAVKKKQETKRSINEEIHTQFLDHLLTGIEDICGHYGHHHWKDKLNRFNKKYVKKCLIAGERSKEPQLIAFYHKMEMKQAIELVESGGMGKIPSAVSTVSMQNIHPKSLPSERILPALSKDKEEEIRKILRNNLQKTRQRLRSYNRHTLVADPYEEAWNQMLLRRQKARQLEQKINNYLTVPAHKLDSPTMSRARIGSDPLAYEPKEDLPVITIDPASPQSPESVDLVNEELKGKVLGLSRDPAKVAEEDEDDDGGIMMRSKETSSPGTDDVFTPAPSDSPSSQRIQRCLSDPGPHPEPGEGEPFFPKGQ

Row | Compound | Proliferation and migration of human PASMCs (human PASMCs) | Thermal stability (mp/dec) [3] [°C] | Dissolution levels in FeSSIF pH 5.0 ([4]; 5 min) [mg/mL] | Dissolution levels in FeSSIF pH 5.0 ([4]; 15 min) | Dissolution levels in FeSSIF pH 5.0 ([4]; 60 min) | Dissolution levels in FeSSIF pH 5.0 ([4]; 120 min) | Dissolution behavior compared to prior-art form HCl-H1 [4] | Hygroscopicity classification acc. to Ph. Eur. criteria (section 5.11.) [5] | Water uptake levels (Water Vapour Sorption) [5, 7] [wt %] | also measured
1 | Cc1cc(S(C)(=O)=O)c(S(C)(=O)=O)cc1C(=O)N=C(N)N [Rimeporide, N-(4,5-bismethanesulfonyl-2-methylbenzoyl)guanidine] |  |  |  |  |  |  |  |  |  | Cardioprotective action ([1]; animal models of DMD and dilated cardiomyopathy): good cardioprotective action; Long term accumulation of inflammation and fibrosis ([1]; animal models of DMD, skeletal muscles, the heart and the diaphragm): prevent against the long term accumulation of inflammation and fibrosis; Inhibition of NHE-1 [2]: potent and selective inhibitor
2 | CCN(c1nc(N)c(C(=O)NC(=N)N)nc1Cl)C(C)C [EIPA] | inhibit proliferation and migration |  |  |  |  |  |  |  |  | Proliferation and migration (SuHx rats): inhibit proliferation and migration
3 | N=C(N)NC(=O)c1ccc(N2CCN(C(=O)c3ccc[nH]3)CC2)c(C(F)(F)F)c1 [Sabiporide] | inhibit proliferation and migration |  |  |  |  |  |  |  |  | 
4 | Cc1cc(S(C)(=O)=O)c(S(C)(=O)=O)cc1C(=O)NC(=N)N [Maleate-NF2, N-(4,5-bis-methanesulfonyl-2-methyl-benzoyl)-guanidine] |  | > 200 | 2.043 | 4.30±0.02 mg/mL and 4.296 mg/mL | 6.35±0.02 mg/mL and 6.350 mg/mL | 6.35±0.02 mg/mL and 6.350 mg/mL | improved dissolution behavior | non-hygroscopic; also recorded: slightly hygroscopic |  | Water uptake levels (Water Vapour Sorption) ([5]; entire relative humidity range 0-98% rh): ≤ 0.3 wt %; Tendency to undergo hydrate formation [5]: no tendency to undergo hydrate formation
5 | Cc1cc(S(C)(=O)=O)c(S(C)(=O)=O)cc1C(=O)NC(=N)N [Sulfate-NF3, N-(4,5-bis-methanesulfonyl-2-methyl-benzoyl)-guanidine] |  | > 210 | 2.590 | 3.70±0.02 mg/mL and 3.703 mg/mL | 4.65±0.02 mg/mL and 4.646 mg/mL | 4.70±0.02 mg/mL and 4.705 mg/mL | improved dissolution behavior | slightly hygroscopic | ≤ 0.5 | 
6 | N=C(N)NC(=O)c1nc(Cl)c(N)nc1N [Amiloride] | inhibit proliferation and migration |  |  |  |  |  |  |  |  | 
7 | Cc1cc(S(C)(=O)=O)c(S(C)(=O)=O)cc1C(=O)NC(=N)N [Besylate-NF1, N-(4,5-bis-methanesulfonyl-2-methyl-benzoyl)-guanidine] |  | > 280 | 4.059 | 5.57±0.02 mg/mL and 5.570 mg/mL | 5.57±0.02 mg/mL and 5.570 mg/mL | 3.87±0.02 mg/mL and 3.873 mg/mL | improved dissolution behavior | slightly hygroscopic | 1.0 | 
8 | CC(C)c1ccc(C(=O)NC(=N)N)cc1S(C)(=O)=O [cariporide] |  |  |  |  |  |  |  |  |  | Development of right heart failure [6]: attenuate the development of right heart failure
9 | Cc1cc(S(C)(=O)=O)c(S(C)(=O)=O)cc1C(=O)NC(=N)N [Citrate-NF1, N-(4,5-bis-methanesulfonyl-2-methyl-benzoyl)-guanidine] |  | ~180 | 2.056 | 4.13±0.02 mg/mL and 4.132 mg/mL |  |  | improved dissolution behavior | slightly hygroscopic |  | Water uptake levels (Water Vapour Sorption) ([5]; relative humidity range 0-90% rh): ≤ 1.5 wt %; Tendency to undergo hydrate formation [5]: no tendency to undergo hydrate formation
10 | Cc1cc(S(C)(=O)=O)c(S(C)(=O)=O)cc1C(=O)NC(=N)N [Malonate-NF1, N-(4,5-bis-methanesulfonyl-2-methyl-benzoyl)-guanidine] |  | > 190 | 3.527 | 5.340 mg/mL | 5.77±0.02 mg/mL and 5.770 mg/mL | 5.79±0.02 mg/mL and 5.790 mg/mL | improved dissolution behavior | slightly hygroscopic | ≤ 1.0 | 
